Assay [1] concerns purinergic receptor (P2YR). To be noted: off-target screen ref 6; cited from earlier work.
The target of assay [2] is T1, CCK1R (Homo sapiens, UniProt P32238).
T1 sequence (P32238 1-428): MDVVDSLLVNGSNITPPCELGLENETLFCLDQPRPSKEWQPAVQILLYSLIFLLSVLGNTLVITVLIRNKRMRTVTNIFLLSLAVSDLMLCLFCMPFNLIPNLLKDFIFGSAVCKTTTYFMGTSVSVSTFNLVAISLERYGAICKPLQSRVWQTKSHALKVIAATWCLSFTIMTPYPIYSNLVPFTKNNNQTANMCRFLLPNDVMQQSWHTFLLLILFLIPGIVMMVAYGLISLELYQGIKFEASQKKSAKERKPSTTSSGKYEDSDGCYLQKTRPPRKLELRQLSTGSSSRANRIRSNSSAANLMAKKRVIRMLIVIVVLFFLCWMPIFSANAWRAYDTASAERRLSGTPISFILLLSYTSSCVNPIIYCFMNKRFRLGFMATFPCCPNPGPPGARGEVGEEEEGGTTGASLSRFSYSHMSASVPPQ
Put plainly: Receptor internalization assay with alexa488-CCK. The conditions noted are these: hits at 10 µM; cell surface receptor labelled with alexa488-CCK. Set-up: expressed in transfected cells; host or cells: HEK-293. It counts as cell-based. As to the method:
Receptor internalization assays were performed with the fluorescent alexa488-CCK ligand used to visualize cell surface receptors after treatment and fixation with 2% paraformaldehyde (Electron Microscopy Sciences, Cat# 15710), as we described. Images were acquired with a Zeiss Axiovert 200M inverted epifluorescence microscope.

Assay [3] concerns the target T1, CCK1R. Put plainly: IP-One accumulation TR-FRET assay, PAM format, HEK-293 CCK1R cells. The format is cell-based. Set-up: expressed in transfected cells; host or cells: HEK-293. To be noted: for Emax: HEK293; for EC50: PAM format with EC20 CCK. Summed up:
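HEK-293 cells overexpressing CCK1R were plated overnight, then given compounds (top 50 µM, 16-point 2-fold) for 30 min at 37 °C. CCK stimulator with 50 mM LiCl (PAM format) or DMSO (agonist format) followed for 1 h. IP-One was read by TR-FRET; activity score = CCK-normalized Emax × pEC50.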
Background: TR-FRET usually uses a lanthanide donor and a delayed reading to cut background.

The target in assay [4] is T1, CCK1R. Nature of the assay: CCK1R cAMP accumulation assay, PAM format, HEK-293 CCK1R cells. Set-up: expressed in transfected cells; host or cells: HEK-293. The format is cell-based. The conditions noted are these: for EC50: EC20 concentration of CCK; for Emax: HEK293, EC20 concentration of CCK. How it is done: Possible off-target biological effects. […] Here, we tested them at the vasopressin-2 receptor (AVP2R), representing a class A GPCR structurally related to CCK1R, which is coupled to Gs. The activity at AVP2R was tested using AVP2R-overexpressing CHO-K1 (PAM format) or HEK-293 (agonist format) cells, stimulating the cells with vasopressin. Original hits were tested in both agonist and PAM formats. Since all recognized compound responses were present in both formats, we continued to screen analogs in only the PAM format (also able to capture agonist effects) in CHO-K1 AVP2R cells for potential enhanced sensitivity. The dose–response data sets for original hits were combined, as the PAM and agonist effects were indistinguishable. In brief, arginine vasopressin (AVP) orthosteric stimulator dilutions and ligand and compound dose–response titrations in DMSO were transferred onto a 1536-well plate (Corning #3725) using an Echo liquid handler (Labcyte). Thawed cryopreserved cell stocks were diluted in stimulation buffer consisting of HBSS (Hank’s Balanced Salt Solution with Ca^2+ and Mg^2+, Gibco #24020117), 5 mM HEPES (hydroxyethyl piperazineethanesulfonic acid), 0.5 mM IBMX (3-isobutyl-1-methylxanthine, Sigma-Aldrich), and 0.075% BSA (7.5% DTPA-purified bovine serum albumin, PerkinElmer). The resulting cell suspension was added to the microplate and incubated with test compounds at room temperature for 30 min. Then, the detection reagents from the Cisbio cAMP Gs Dynamic HTRF detection kit were added. The plate was kept at room temperature for 30 min and read on a PHERAstar FSX microplate reader. Dose–response curves were performed as 16-point 2-fold dilutions in duplicate in at least two independent experiments.
For CCK1R-induced Gs signaling studies, we performed cAMP accumulation assays as described above and as previously reported, utilizing the HEK-293 cells overexpressing CCK1Rs and the EC20 concentration of CCK for screening in PAM format.

[5] abbreviates: HEK-293 CCK1R cells, PAM format, relative to CCK control, average ± SD.
Setting [6] is: HEK-293 CCK1R cells, PAM format.
Where [7] appears, read: HEK-293 CCK1R cells, average ± SD.

`CCN(CC)CCNc1ncnc2c1sc1nc(N3CCOCC3)c3c(c12)CCCC3` [CMP-1]: the “Activity at P2YR” value in assay [1] is listed as “Neither compound exhibited any activity at the P2YR”. Moreover, the CCK1R internalization result on CCK1R [2] is on record as “neither “hit” cleared the receptor from the cell surface”. In addition, the “Log(Rmax/R50)” value on CCK1R [3] (CCK1R IP-One PAM assay) turned out to be 4.7. The maximum response (Emax) (as a rule, the size of the effect at its maximum, as opposed to the concentration needed) on CCK1R [3] (setting [5]) amounted to 60%; on CCK1R [4] it was 48 ± 31%. Moreover, the “CCK1R PAM (IP-One) Score (activity score = normalized Emax × pEC50)” value at CCK1R [3] (setting [6]) is recorded as 2.94; at CCK1R [3] (HEK-293 CCK1R cells, PAM format, listed as hit 1) it was 2.9. In addition, the EC50 (in general, the concentration that produces a half-maximal response) on CCK1R [3] (setting [7]) is 12.8 ± 4.6 µM; on CCK1R [4], 14.7 ± 7.3 µM. The “CCK1R PAM (IP-One) Emax” value on CCK1R [3] (setting [5]) was 63 ± 18%. Also, at CCK1R [3] (from activity scores, CCK1R IP-One), the “AUC relative to AUC of endogenous agonist CCK” value is on record as “approximately 29%”.

In the case of `CCCc1nc2oc3c(NCCCN(C)C)ncnc3c2c2c1CCCC2` [CMP-28], the “Activity at P2YR” value in assay [1] is on record as “Neither compound exhibited any activity at the P2YR”. For the same molecule, the CCK1R internalization result on CCK1R [2] is “neither “hit” cleared the receptor from the cell surface”. Further, the results for the maximal response (Emax) on CCK1R [3] (setting [5]) and on CCK1R [4] were 35 ± 13% and 56 ± 26%, respectively. The “CCK1R PAM (IP-One) Score (activity score = normalized Emax × pEC50)” value on CCK1R [3] (setting [6]) was 1.66; at CCK1R [3] (HEK-293 CCK1R cells, PAM format, listed as hit 6), 1.7. Further, the concentration for a half-maximal effect (EC50) at CCK1R [3] (setting [7]) came to 9.5 ± 3.5 µM; at CCK1R [4], 15.6 ± 12.4 µM.

Values taken from PMC9964746, “Mechanism of Action and Structure–Activity Relationships of Tetracyclic Small Molecules Acting as Universal Positive Allosteric Modulators of the Cholecystokinin Receptor” (Membranes, 2023).
